Measured values published in patent publication US20100144749A1, “TREATMENT OF CANCERS WITH ACQUIRED RESISTANCE TO KIT INHIBITORS” (priority 2005, published 2010).

Key:
Type in all cases: cell-based, murine
[1] = tested on: Ba/F3 cells expressing human c-KIT with exon 11 deletion of residues 557-558; test: Cell proliferation assay (CellTiter-Glo), Ba/F3 c-KIT exon 11 deletion mutant; conditions: BaF3; Ba/F3, c-KIT exon 11 del 557-558; 72 h; dose range 0.6 to 10,000 nM; mean of at least three experiments; read-out: IC50 of cell proliferation inhibition, Exon 11 (WT)
Procedure: (§1) All mutations were confirmed by DNA sequencing.
(§2) Selective pressure was applied to the transfected cells by removing IL-3 from the culture medium. After IL-independent populations, further selective pressure was applied by also growing the cells in the presence of 1 mg/mL G418. […] The stable pools were further characterized by sequencing genomic DNA to confirm the presence of the transfected c-KIT cDNA.
(§3) This assay utilizes cellular ATP as a marker for cell proliferation/viability. […] Plates were then incubated in a 5% CO2 incubator at 37° C. for 3 days. After 72 h, 100 microliters of lysis/luciferase reagent (CellTiter-Glo, Promega G7573) was added to each well. The cells were then incubated on a shaker for 5 minutes at room temperature, and luminescence was measured on a Victor 5 (Perkin Elmer) spectrophotometer. Growth inhibition was measured by comparing luminescence signal from treated vs. untreated cells in assay plates, and the IC50 analysis of cell proliferation inhibition by compounds was analyzed using Analyze 5 in-house software. […] The IC50 values are mean values calculated from at least three experiments.

[2] = tested on: Ba/F3 cells expressing c-KIT Exon 11/V654A Gleevec-resistant double mutant; test: Cell proliferation assay (CellTiter-Glo), Ba/F3 c-KIT exon 11/V654A; conditions: Mus musculus, BaF3, 72 h, dose range 0.6 to 10,000 nM, mean of at least three experiments, read-out: IC50 of cell proliferation inhibition, Exon 11/Gleevec-resistant Double Mutant V654A
Procedure: as §1, §2, §3

[3] = tested on: Ba/F3 cells expressing c-KIT Exon 11/D816G Gleevec-resistant double mutant; test: Cell proliferation assay (CellTiter-Glo), Ba/F3 c-KIT exon 11/D816G; conditions: Mus musculus, BaF3, 72 h, dose range 0.6 to 10,000 nM, mean of at least three experiments, read-out: IC50 of cell proliferation inhibition, Exon 11/Gleevec-resistant Double Mutant D816G
Procedure: as §1, §2, §3

[4] = tested on: Ba/F3 cells expressing c-KIT Exon 11/N822K Gleevec-resistant double mutant; test: Cell proliferation assay (CellTiter-Glo), Ba/F3 c-KIT exon 11/N822K; conditions: Mus musculus, BaF3, 72 h, dose range 0.6 to 10,000 nM, mean of at least three experiments, read-out: IC50 of cell proliferation inhibition, Exon 11/Gleevec-resistant Double Mutant N822K
Procedure: as §1, §2, §3

[5] = tested on: Ba/F3 cells expressing c-KIT Exon 11/Y823D Gleevec-resistant double mutant; test: Cell proliferation assay (CellTiter-Glo), Ba/F3 c-KIT exon 11/Y823D; conditions: Mus musculus, BaF3, 72 h, dose range 0.6 to 10,000 nM, mean of at least three experiments, read-out: IC50 of cell proliferation inhibition, Exon 11/Gleevec-resistant Double Mutant Y823D
Procedure: as §1, §2, §3

[6] = tested on: c-KIT-expressing Ba/F3 cell lines, Gleevec-resistant double mutants versus Exon 11 mutant; test: Potency shift caused by c-KIT resistance mutations (summary of Table 2); conditions: double mutants relative to Exon 11 mutant, from Table 2
Procedure: as §1, §2, §3

- IC50 [1]: 0.003 µM
- IC50 [2]: 0.046 µM
- IC50 [3]: 0.008 µM
- IC50 [4]: 0.017 µM
- IC50 [5]: 0.036 µM
SMILES: CNC(=O)c1cc(Oc2ccc(NC(=O)Nc3ccc(Cl)c(C(F)(F)F)c3)cc2)ccn1 [BAY 43-9006, N-[4-chloro-3-(trifluoromethyl)phenyl]-N′-{4-[2-carbamoyl-1-oxo-(4-pyridyloxy)]phenyl} urea]
- decrease of drug potency caused by c-KIT resistance mutations [6]: no more than 15 fold
